Consider 25 molecules from patent US11078193B2 (priority 2014, dated 2021).

The test system of series [1] is HBV. As to the kind of experiment: anti HBV activity, HepG2.117 inducibly HBV producing cell line (Tet-off), intracellular HBV DNA by realtime PCR. The format is cell-based. The following applies: Hepatitis B virus, 72 h, HepG2.117 cells, 3 days of treatment.
Series [2] can be described thus: ATP based toxicity assay (ATPlite), HepG2 cell line. Particulars: human, HepG2 cells, ATPlite (ATP levels). The procedure:
Alternatively, cytotoxicity was determined via an ATP-assay: The ATPlite kit from Perkin Elmer was used to assess compound cytotoxicity on the HepG2 cell line by determination of the ATP (adenosine triphosphate) levels. ATP is a marker for functional integrity and cell viability, because it is present in all metabolically active cells and any form of cell injury will result in a rapid decline in cellular ATP concentration. After compound incubation, 1 volume of ATPlite solution was added to the cells and the luminescence signal was measured.

Series [3] is described as follows: Cytotoxicity, HepG2 cells, Resazurin assay. In kind it is cell-based. The following applies: human.

The molecule `C[C@@H](NS(=O)(=O)c1cn(C)c(C(=O)Nc2cc(F)nc(F)c2Cl)c1Cl)C(F)(F)F` [Compound 185, 3-chloro-N-(3-chloro-2,6-difluoro-4-pyridyl)-1-methyl-4-[[(1R)-2,2,2-trifluoro-1-methyl-ethyl]sulfamoyl]pyrrole-2-carboxamide] showed a concentration for a half-maximal effect (EC50) in series [1] of 0.74 µM. Further, the CC50 at 4 days in series [2] and in series [3] was more than 25 µM in each case.
Molecule `Cc1cc(NC(=O)c2c(Cl)c(S(=O)(=O)N[C@H](C)C(C)(F)F)cn2C)cc(F)n1` [Compound 146, 3-chloro-4-[[(1R)-2,2-difluoro-1-methyl-propyl]sulfamoyl]-N-(2-fluoro-6-methyl-4-pyridyl)-1-methyl-pyrrole-2-carboxamide] yielded an EC50 in series [1] of 0.03 µM. The CC50 at 4 days in series [2] and in series [3] was more than 25 µM each time.
`Cc1cc(NC(=O)c2c(F)c(S(=O)(=O)N[C@H](C)C(C)(F)F)cn2C)cc(Cl)n1` [Compound 158, N-(2-chloro-6-methyl-4-pyridyl)-4-[[(1R)-2,2-difluoro-1-methyl-propyl]sulfamoyl]-3-fluoro-1-methyl-pyrrole-2-carboxamide] yielded an EC50 in series [1] of 0.05 µM. In addition, the CC50 at 4 days in series [2] and in series [3] was more than 25 µM throughout.
In series [1], `Cn1cc(S(=O)(=O)NC2(C(F)(F)F)CCC2)c(Cl)c1C(=O)Nc1ccnc(C(F)F)c1` [Compound 108, 3-chloro-N-[2-(difluoromethyl)-4-pyridyl]-1-methyl-4-[[1-(trifluoromethyl)cyclobutyl]sulfamoyl]pyrrole-2-carboxamide] showed an EC50 of 0.02 µM. Also, the CC50 at 4 days in series [2] and in series [3] was more than 25 µM each time.
In series [1], `Cc1cc(NC(=O)c2c(F)c(S(=O)(=O)NC3(C)CC(F)(F)C3)cn2C)cc(F)n1` [Compound 134, 4-[(3,3-difluoro-1-methyl-cyclobutyl)sulfamoyl]-3-fluoro-N-(2-fluoro-6-methyl-4-pyridyl)-1-methyl-pyrrole-2-carboxamide] gave an EC50 of 0.01 µM. Besides, the CC50 at 4 days in series [2] and in series [3] was more than 25 µM throughout.
Molecule `Cn1cc(S(=O)(=O)NC2(C)CC(F)(F)C2)c(F)c1C(=O)Nc1ccnc(C#N)c1` [Compound 53, N-(2-cyano-4-pyridyl)-4-[(3,3-difluoro-1-methyl-cyclobutyl)sulfamoyl]-3-fluoro-1-methyl-pyrrole-2-carboxamide] showed a concentration giving a half-maximal response (EC50) in series [1] of 0.04 µM. Further, the CC50 at 4 days in series [2] and in series [3] was more than 25 µM each time.
Take `Cn1cc(S(=O)(=O)NC2(C)CC(F)(F)C2)c(Cl)c1C(=O)Nc1ccnc(Br)c1` [Compound 113, N-(2-bromo-4-pyridyl)-3-chloro-4-[(3,3-difluoro-1-methyl-cyclobutyl)sulfamoyl]-1-methyl-pyrrole-2-carboxamide]: the EC50 in series [1] stood at 0.01 µM. The figures for the CC50 at 4 days in series [2] and in series [3] were 23.7 µM and more than 25 µM, respectively.
In series [1], `C[C@@H](NS(=O)(=O)c1cc(C(=O)Nc2ccnc(C(F)F)c2)n(C)c1)C(C)(F)F` [Compound 100, 4-[[(1R)-2,2-difluoro-1-methyl-propyl]sulfamoyl]-N-[2-(difluoromethyl)-4-pyridyl]-1-methyl-pyrrole-2-carboxamide] had an EC50 of 0.08 µM. The CC50 at 4 days in series [2] and in series [3] was more than 25 µM throughout.
The molecule `Cc1cc(NC(=O)c2c(F)c(S(=O)(=O)N[C@H](C)C(C)(F)F)cn2C)cc(F)n1` [Compound 160, 4-[[(1R)-2,2-difluoro-1-methyl-propyl]sulfamoyl]-3-fluoro-N-(2-fluoro-6-methyl-4-pyridyl)-1-methyl-pyrrole-2-carboxamide] showed an EC50 in series [1] of 0.01 µM. For the same molecule, the CC50 at 4 days in series [2] and in series [3] was more than 25 µM each time.
In series [1], `C[C@@H](NS(=O)(=O)c1cn(C)c(C(=O)Nc2cc(F)nc(Br)c2)c1F)C(F)(F)F` [Compound 216, N-(2-bromo-6-fluoro-4-pyridyl)-3-fluoro-1-methyl-[[(1R)-2,2,2-trifluoro-1-methyl-ethyl]sulfamoyl]pyrrole-2-carboxamide] came in with a concentration giving a half-maximal response (EC50) of 0.01 µM. Besides, the half-maximal cytotoxic concentration (CC50) at 4 days in series [2] was more than 25 µM.
In series [1], `Cn1cc(S(=O)(=O)NC2(C(F)(F)F)CC2)c(F)c1C(=O)Nc1ccnc(Br)c1F` [Compound 203, N-(2-bromo-3-fluoro-4-pyridyl)-3-fluoro-1-methyl-4-[[1-(trifluoromethyl)cyclopropyl]sulfamoyl]pyrrole-2-carboxamide] showed a 50% effective concentration (EC50) of 0.008 µM. Besides, in series [2], the CC50 at 4 days is more than 25 µM.
Molecule `C[C@@H](NS(=O)(=O)c1cn(C)c(C(=O)Nc2ccnc(C(F)F)c2F)c1F)C(F)(F)F` [Compound 202, N-[2-(difluoromethyl)-3-fluoro-4-pyridyl]-3-fluoro-1-methyl-4-[[(1R)-2,2,2-trifluoro-1-methyl-ethyl]sulfamoyl]pyrrole-2-carboxamide] registered an EC50 in series [1] of 0.008 µM. Moreover, the CC50 at 4 days in series [2] is more than 25 µM.
Molecule `Cn1cc(S(=O)(=O)NC(C)(C)C(F)(F)F)c(F)c1C(=O)Nc1cc(F)nc(F)c1` [Compound 189, N-(2,6-difluoro-4-pyridyl)-3-fluoro-1-methyl-4-[(2,2,2-trifluoro-1,1-dimethyl-ethyl)sulfamoyl]pyrrole-2-carboxamide] registered an EC50 in series [1] of 0.06 µM. The molecule further gave a CC50 at 4 days in series [2] of more than 25 µM.
Consider `Cn1cc(S(=O)(=O)NC2(C(F)(F)F)COC2)c(F)c1C(=O)Nc1cc(F)nc(F)c1` [Compound 211], for which the EC50 in series [1] is 0.05 µM. The molecule further had a half-maximal cytotoxic concentration (CC50) at 4 days in series [2] of more than 25 µM.
`Cn1cc(S(=O)(=O)NC(C)(C)C(F)(F)F)c(F)c1C(=O)Nc1ccnc(C(F)F)c1` [Compound 190, N-[2-(difluoromethyl)-4-pyridyl]-3-fluoro-1-methyl-4-[(2,2,2-trifluoro-1,1-dimethyl-ethyl)sulfamoyl]pyrrole-2-carboxamide] showed an EC50 in series [1] of 0.05 µM. The CC50 at 4 days in series [2] is more than 25 µM.
In turn, `Cn1cc(S(=O)(=O)NC2(C(F)(F)F)COC2)c(F)c1C(=O)Nc1ccnc(Br)c1` [Compound 209, N-(2-bromo-4-pyridyl)-3-fluoro-1-methyl-4-[[3-(trifluoromethyl)oxetan-3-yl]sulfamoyl]pyrrole-2-carboxamide] had an EC50 in series [1] of 0.09 µM. The same molecule displayed a CC50 at 4 days in series [2] of more than 25 µM.
With `Cn1cc(S(=O)(=O)NC(C)(C)C(F)(F)F)c(F)c1C(=O)Nc1ccnc(C#N)c1` [Compound 188, N-(2-cyano-4-pyridyl)-3-fluoro-1-methyl-4-[(2,2,2-trifluoro-1,1-dimethyl-ethyl)sulfamoyl]pyrrole-2-carboxamide], the EC50 in series [1] was found to be 0.1 µM. The same molecule displayed a CC50 at 4 days in series [2] of more than 25 µM.
With `Cn1cc(S(=O)(=O)NC2(C(F)(F)F)COC2)c(F)c1C(=O)Nc1ccnc(C(F)F)c1F` [Compound 208, N-[2-(difluoromethyl)-3-fluoro-4-pyridyl]-3-fluoro-1-methyl-4-[[3-(trifluoromethyl)oxetan-3-yl]sulfamoyl]pyrrole-2-carboxamide], in series [1], the EC50 stood at 0.04 µM. In series [2], this molecule gave a cytotoxic concentration (CC50) at 4 days of more than 25 µM.
On to `Cn1cc(S(=O)(=O)NC2(C)CC(F)(F)C2)c(F)c1C(=O)Nc1ccnc(C#N)c1F` [Compound 197, N-(2-cyano-3-fluoro-4-pyridyl)-4-[(3,3-difluoro-1-methyl-cyclobutyl)sulfamoyl]-3-fluoro-1-methyl-pyrrole-2-carboxamide], for which the EC50 in series [1] stood at 0.01 µM. Besides, the CC50 at 4 days in series [2] was more than 25 µM.
In turn, `Cc1c(S(=O)(=O)N[C@H](C)C(F)(F)F)c(F)c(C(=O)Nc2ccnc(C(F)F)c2)n1C` [Compound 206, N-[2-(difluoromethyl)-4-pyridyl]-3-fluoro-1,5-dimethyl-4-[[(1R)-2,2,2-trifluoro-1-methyl-ethyl]sulfamoyl]pyrrole-2-carboxamide] displayed an EC50 in series [1] of 0.02 µM. The cytotoxic concentration (CC50) at 4 days in series [2] is more than 25 µM.
In turn, `Cn1cc(S(=O)(=O)NC2(C(F)(F)F)CC2)c(F)c1C(=O)Nc1ccnc(C(F)F)c1F` [Compound 195, N-[2-(difluoromethyl)-3-fluoro-4-pyridyl]-3-fluoro-1-methyl-4-[[1-(trifluoromethyl)cyclopropyl]sulfamoyl]pyrrole-2-carboxamide] had an EC50 in series [1] of 0.02 µM. The molecule also showed a CC50 at 4 days in series [2] of more than 25 µM.
As to `Cn1cc(S(=O)(=O)NC2(C)CC(F)(F)C2)c(Cl)c1C(=O)Nc1ccnc(C#N)c1F` [Compound 162, 3-chloro-N-(2-cyano-3-fluoro-4-pyridyl)-4-[(3,3-difluoro-1-methyl-cyclobutyl)sulfamoyl]-1-methyl-pyrrole-2-carboxamide], in series [1], the concentration for a half-maximal effect (EC50) is 0.02 µM. In series [2], this molecule had a CC50 at 4 days of more than 25 µM.
Regarding `Cn1cc(S(=O)(=O)NC2(C(F)(F)F)CC2)c(F)c1C(=O)Nc1ccnc(C(F)F)c1` [Compound 196, N-[2-(difluoromethyl)-4-pyridyl]-3-fluoro-1-methyl-4-[[1-(trifluoromethyl)cyclopropyl]sulfamoyl]pyrrole-2-carboxamide], it took 0.02 µM to reach a half-maximal effect in series [1] (EC50). In series [2], this molecule yielded a CC50 at 4 days of more than 25 µM.
With `Cn1cc(S(=O)(=O)NC2(C)CC(F)(F)C2)c(F)c1C(=O)Nc1cc(Cl)nc(Cl)c1` [Compound 136, N-(2,6-dichloro-4-pyridyl)-4-[(3,3-difluoro-1-methyl-cyclobutyl)sulfamoyl]-3-fluoro-1-methyl-pyrrole-2-carboxamide], in series [1], the EC50 is 0.02 µM. In series [2], this molecule gave a CC50 at 4 days of 9.5 µM.
Take `Cc1c(S(=O)(=O)N[C@H](C)C(F)(F)F)c(F)c(C(=O)Nc2ccnc(Br)c2)n1C` [Compound 205, N-(2-bromo-4-pyridyl)-3-fluoro-1,5-dimethyl-[[(1R)-2,2,2-trifluoro-1-methyl-ethyl]sulfamoyl]pyrrole-2-carboxamide]: the EC50 in series [1] worked out at 0.02 µM. The molecule further came in with a CC50 at 4 days in series [2] of more than 25 µM.
